Experimental data taken from patent US20040106626A1, “6-Membered unsaturated heterocyclic compounds useful for selective inhibition of the coagulation cascade” (Pharmacia Corporation, priority 2001, published 2004).

Tests used:
Assay type in all cases: biochemical
[1] = target: T1, recombinant soluble tissue factor and recombinant human factor VIIa (TF-VIIa) (Homo sapiens, UniProt P08709); assay: TF-VIIa assay (chromogenic substrate hydrolysis); settings: reported only as less than or greater than 0.1 uM
T1 construct: conversion of coagulation factor VII to VIIa by factor Xa; purchased American Diagnostica, Greenwich CT; host or cells: soluble TF made in house in E. coli
Summary of the method: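 Chromogenic read at OD405, compared with control for percent inhibition. Substrate N-methylsulfonyl-D-phe-gly-arg-p-nitroaniline at 0.4 mM is cleaved by recombinant human VIIa (2 nM) complexed with soluble TF (100 nM). Buffer: pH 8.0 Tris-HCl 50 mM, CaCl2 5 mM, NaCl 100 mM, BSA 0.1%.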

Human factor Xa = target: T2, Human factor Xa (Homo sapiens, UniProt P00742); assay: Xa assay (chromogenic substrate S-2765); settings: reported only as less than or greater than 30 uM; read-out: Factor Xa (II) IC50
T2 construct: purchased Enzyme Research Laboratories, South Bend Ind
Summary of the method: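 Chromogenic readout: S-2765 hydrolysis (0.15 mM) by 0.3 nM human FXa was monitored at 405 nm after 60 min at room temperature, with a time-zero background read. Buffer: 50 mM Tris-HCl, pH 8.0, 100 mM NaCl, 0.1% BSA. Inhibition is relative to buffer-only controls.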

Human thrombin = target: T3, Human thrombin (Homo sapiens, UniProt P00734); assay: Thrombin assay (chromogenic substrate); settings: reported only as less than or greater than 30 uM; read-out: Thrombin (II) IC50
T3 construct: converts prothrombin (II) to thrombin (IIa); purchased Calbiochem, La Jolla, Calif
Summary of the method: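 Percent inhibition derived by comparing OD405 nm of compound-treated and control samples. Thrombin cleavage of a p-nitroanilide chromogenic substrate provides the signal.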

[2] = test system: Normal human pooled plasma; assay: Prothrombin time (PT) clotting assay; settings: concentration at which prothrombin time is prolonged by 2x normal, reported as less than or greater than 50 uM
Summary of the method: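 Normal human pooled plasma incubated with 100 uM compound or saline, then thromboplastin (human tissue factor) added and clotting time recorded in a coagulation machine. Compounds exceeding 3× normal PT (11.0 s) are titrated to find the concentration doubling PT.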

T1 sequence (P08709 213-466 limits assumed): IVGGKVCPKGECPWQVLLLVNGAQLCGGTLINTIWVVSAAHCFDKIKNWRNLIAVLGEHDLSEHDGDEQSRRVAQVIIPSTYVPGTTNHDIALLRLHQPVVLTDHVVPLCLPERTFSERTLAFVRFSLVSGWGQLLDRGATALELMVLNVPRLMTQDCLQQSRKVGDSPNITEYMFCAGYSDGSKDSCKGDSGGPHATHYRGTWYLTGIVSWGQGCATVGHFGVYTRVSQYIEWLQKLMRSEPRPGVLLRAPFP
T1 sequence (P08709 61-212 limits assumed): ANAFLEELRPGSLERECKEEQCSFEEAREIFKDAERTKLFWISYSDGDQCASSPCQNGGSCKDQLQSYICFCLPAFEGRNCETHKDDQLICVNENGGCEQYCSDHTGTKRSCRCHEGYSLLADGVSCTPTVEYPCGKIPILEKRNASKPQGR
T1 sequence (P13726 33-251 partner limits assumed): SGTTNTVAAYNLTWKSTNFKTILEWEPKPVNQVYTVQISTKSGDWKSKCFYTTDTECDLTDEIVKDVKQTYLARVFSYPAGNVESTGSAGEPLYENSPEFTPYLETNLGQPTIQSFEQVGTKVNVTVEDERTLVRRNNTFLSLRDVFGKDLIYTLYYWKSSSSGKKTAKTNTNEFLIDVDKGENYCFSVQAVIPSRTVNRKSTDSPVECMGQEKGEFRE
T2 sequence (P00742 235-488 limits assumed): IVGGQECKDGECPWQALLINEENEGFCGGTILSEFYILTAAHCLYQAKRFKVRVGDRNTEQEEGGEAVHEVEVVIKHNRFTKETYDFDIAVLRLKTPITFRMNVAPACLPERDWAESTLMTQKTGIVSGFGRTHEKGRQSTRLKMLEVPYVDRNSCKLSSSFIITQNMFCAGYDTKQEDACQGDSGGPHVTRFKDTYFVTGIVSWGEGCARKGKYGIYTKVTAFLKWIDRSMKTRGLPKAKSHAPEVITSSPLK
T2 sequence (P00742 41-179 limits assumed): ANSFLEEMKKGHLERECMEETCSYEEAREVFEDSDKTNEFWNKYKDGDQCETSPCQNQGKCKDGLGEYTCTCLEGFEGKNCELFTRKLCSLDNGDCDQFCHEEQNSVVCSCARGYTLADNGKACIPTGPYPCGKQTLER

Compound | IC50 [1] [µM] | IC50 (Human factor Xa) [µM] | IC50 (Human thrombin) [µM] | PT (Prothrombin time) 2xPT [2] [µM]
N=C(N)c1ccc(CNC(=O)Cn2c(-c3cc(N)cc(C(=O)O)c3)cnc(NC3CC3)c2=O)cc1.O=C(O)C(F)(F)F [Example 204, 3-amino-5-[1-[2-({4-[amino(imino)methyl]benzyl}amino)-2-oxoethyl]-5-(cyclopropylamino)-6-oxo-1,6-dihydropyrazin-2-yl]benzoic Acid] | < 0.1 | > 30 | > 30 | <50.0
CCOC(=O)c1cc(N)cc(-c2cnc(NC3CC3)c(=O)n2CC(=O)NCc2ccc(C(=N)N)cc2)c1.O=C(O)C(F)(F)F [Example 207, Ethyl 3-amino-5-[1-[2-({4-[amino(imino)methyl]benzyl}amino)-2-oxoethyl]-5-(cyclopropylamino)-6-oxo-1,6-dihydropyrazin-2-yl]benzoate] | < 0.1 | > 30 | > 30 | <50.0
CCC(CC)COc1cc(N)cc(-c2cnc(NC(C)C)c(=O)n2CC(=O)NCc2ccc(C(=N)N)cc2)c1.O=C(O)C(F)(F)F.O=C(O)C(F)(F)F [Example 209] | < 0.1 | > 30 | > 30 | 50
CC(C)Nc1ncc(-c2cc(N)cc(OCCc3ccccc3)c2)n(CC(=O)NCc2ccc(C(=N)N)cc2)c1=O.O=C(O)C(F)(F)F.O=C(O)C(F)(F)F [Example 211] | < 0.1 | > 30 | > 30 | <50.0
CC(C)Nc1ncc(-c2cc(N)cc(OC3CCCC3)c2)n(CC(=O)NCc2ccc(C(=N)N)cc2)c1=O.O=C(O)C(F)(F)F.O=C(O)C(F)(F)F [Example 212] | < 0.1 | > 30 | > 30 | <50.0
CC(C)Nc1ncc(-c2cc(N)cc(OCC(C)(C)N(C)C)c2)n(CC(=O)NCc2ccc(C(=N)N)cc2)c1=O.O=C(O)C(F)(F)F.O=C(O)C(F)(F)F [Example 213] | < 0.1 | > 30 | > 30 | <50.0
CC(C)CCOc1cc(N)cc(-c2cnc(NC(C)C)c(=O)n2CC(=O)NCc2ccc(C(=N)N)cc2)c1.O=C(O)C(F)(F)F.O=C(O)C(F)(F)F [Example 214] | < 0.1 | > 30 | > 30 | <50.0
CC(C)Nc1ncc(-c2cc(N)cc(OCCC(C)(C)C)c2)n(CC(=O)NCc2ccc(C(=N)N)cc2)c1=O.O=C(O)C(F)(F)F.O=C(O)C(F)(F)F [Example 215] | < 0.1 | > 30 | > 30 | <50.0
CC(C)Nc1ncc(-c2cc(N)cc(OC(C)C)c2)n(CC(=O)NCc2ccc(C(=N)N)cc2)c1=O.O=C(O)C(F)(F)F.O=C(O)C(F)(F)F [Example 216] | < 0.1 | > 30 | > 30 | <50.0
CC(C)Nc1ncc(-c2cc(N)cc(OCC(C)(C)CN(C)C)c2)n(CC(=O)NCc2ccc(C(=N)N)cc2)c1=O.O=C(O)C(F)(F)F.O=C(O)C(F)(F)F [Example 217] | < 0.1 | > 30 | < 30 | <50.0
CC(C)Nc1ncc(-c2cc(N)cc(OC3Cc4ccccc4C3)c2)n(CC(=O)NCc2ccc(C(=N)N)cc2)c1=O.O=C(O)C(F)(F)F.O=C(O)C(F)(F)F [Example 218] | < 0.1 | > 30 | > 30 | <50.0
COCCOc1cc(N)cc(-c2cnc(NC(C)C)c(=O)n2CC(=O)NCc2ccc(C(=N)N)cc2)c1.O=C(O)C(F)(F)F.O=C(O)C(F)(F)F [Example 219] | < 0.1 | > 30 | > 30 | <50.0
CC(C)Nc1ncc(-c2cc(N)cc(OCC3CCCC3)c2)n(CC(=O)NCc2ccc(C(=N)N)cc2)c1=O.O=C(O)C(F)(F)F.O=C(O)C(F)(F)F [Example 220] | < 0.1 | > 30 | > 30 | <50.0
CC(C)Nc1ncc(-c2cc(N)cc(OCC3CCCCC3)c2)n(CC(=O)NCc2ccc(C(=N)N)cc2)c1=O.O=C(O)C(F)(F)F.O=C(O)C(F)(F)F [Example 221] | < 0.1 | > 30 | > 30 | >50.0
